Paper PMC7766124, “Improved Cell Selectivity of Pseudin-2 via Substitution in the Leucine-Zipper Motif: In Vitro and In Vivo Antifungal Activity” (Antibiotics, 2020)
Values after ≈ are worked out from the molar mass of the structure shown. Like-named read-outs stand apart in the source and are kept apart here. No end group written: not given here.

What was measured:
[1] = tested on: A. flavus; type: cell-based, Aspergillus flavus (KCTC 6905); settings: 36 h
Text: (§1) Aspergillus flavus (KCTC 6905), A. fumigatus (KCTC 6145), Fusarium moniliforme (KCTC 6149), F. oxysporum (KCTC 16909), C. albicans (KCTC 7270), C. krusei (CCARM 14017), C. parapsilosis (CCARM 14016), C. tropicalis (KCTC 7221), and T. beigelii (KCTC 7707) were obtained from the Korea Collection for Type Cultures (KCTC) and Culture Collection of Antimicrobial Resistant Microbes (CCARM). Mold and yeast fungi were pre-grown on potato dextrose (PD) and yeast extract peptone dextrose (YPD) agars, respectively.
(§2) Antifungal activity of peptides was performed by microtiter plate assays. Fungal conidia from four-day-old molds were collected using 0.08% Triton X-100 (v/v), and pre-cultivated yeast cells were adjusted to 2 × 10^4 spores/mL in 10 mM sodium phosphate buffer (SP, pH 7.2) or 10 mM 2-(N-morpholino)ethanesulfonic acid (MES) buffer (pH 5.5) supplemented with 20% culture medium, followed by addition to peptide solutions (0.25, 0.5, 1, 1.5, 2, 4, 6, 8, 12, 16, 32, 48, and 64 µM) in 96-well microtiter plates. After incubation for 36 h at 28 °C, the hyphal growth of conidia and the proliferation of yeast cells were observed under a light microscope. All assays were performed in triplicate. The MIC values were defined as the lowest concentration of samples that reduced fungal germination (for mold) or cell proliferation (for yeast) by more than 90% [34].

[2] = Calcein leakage from fungus-mimic artificial vesicles; settings: fungus-mimic PC/PE/PI/ergosterol vesicles, 20 μM lipid; peptide/lipid molar ratio 0.05; 100% = 0.03% Triton X-100; three independent experiments
Experimental: (§3) The permeability of peptides in calcein-entrapped artificial liposomes was assayed by measuring calcein leakage. The desired mixtures of lipids (PC/PE/PI/ergosterol, 5:4:1:2 and PC/CH/SM, 2:1:1, weight ratio) were dissolved in chloroform at 10 mg/mL, dried in a glass tube under nitrogen, and then lyophilized overnight to remove residual solvent. The dried lipid films were resuspended in 1 mL of dye solution (80 mM calcein, 10 mM HEPES buffer, pH 7.2) at 50 °C and vortexed, followed by freeze-thawing for nine cycles and extrusion with polycarbonate filters (0.2-μm pore-size) using an Avanti Mini-Extruder (Avanti Polar Lipids Inc., Alabaster, AL, USA). Free calcein was removed using PD-10 desalting columns (GE Healthcare Life Science, Seoul, Korea). Calcein-entrapped vesicles of 20 μM lipids were incubated with peptides at concentrations of […], 0.02, 0.05, and 0.1 molar ratio (peptide/lipid) and the fluorescence was assessed at 480 (Ex) and 520 (Em) nm using a microtiter SpectraMax M5 reader (Molecular Devices). Complete (100%) release was achieved by the addition of 0.03% Triton X-100 (v/v).

[3] = tested on: F. oxysporum; type: cell-based, F. oxysporum (KCTC 16909); settings: 36 h
Text: as §1, §2

[4] = tested on: C. krusei; type: cell-based, C. krusei (CCARM 14017); settings: 36 h
Text: as §1, §2

[5] = tested on: C. parapsilosis; type: cell-based, C. parapsilosis (CCARM 14016); settings: 36 h
Text: as §1, §2

[6] = tested on: F. moniliforme; type: cell-based, Fusarium moniliforme (KCTC 6149); settings: 36 h
Text: as §1, §2

[7] = tested on: A. fumigatus; type: cell-based, A. fumigatus (KCTC 6145); settings: 36 h
Text: as §1, §2

[8] = tested on: T. beigelii; type: cell-based, T. beigelii (KCTC 7707); settings: 36 h
Text: as §1, §2

[9] = tested on: C. albicans; type: cell-based, C. albicans (KCTC 7270); settings: 36 h
Text: as §1, §2

[10] = tested on: C. tropicalis; type: cell-based, C. tropicalis (KCTC 7221); settings: 36 h
Text: as §1, §2

[11] = Calcein leakage from mammalian-mimic artificial vesicles; settings: mammalian-mimic PC/CH/SM vesicles, 20 μM lipid; peptide/lipid molar ratio 0.1; 100% = 0.03% Triton X-100
Experimental: as §3

[12] = tested on: mouse erythrocytes; test: Hemolytic assay; type: cell-based; settings: 64 µM peptide, 8% (v/v) mRBCs, 37 °C, 2 h (method) / 4 h (figure legend)
Experimental: Mouse blood was collected into sodium heparin-coated tubes (BD Vacutainer; BD Diagnostics, Oxford, UK). The mRBCs were obtained by centrifugation (800× g, 10 min) and washing with PBS. The washed mRBCs were added to a final concentration of 8% (v/v) in 64 µM peptide solution, followed by incubation for 2 h at 37 °C. After centrifugation, each tube was digitally recorded.

[13] = tested on: C. tropicalis cells; test: SYTOX Green uptake (membrane permeability); type: cell-based; settings: SP buffer pH 7.2, 0.5 μM SYTOX Green, peptides 1-64 µM, monitored 30 min
Experimental: C. tropicalis cells pre-grown at 28 °C were washed and suspended (2 × 10^6 cells/mL) in SP buffer (pH 7.2). The cells were pre-incubated with SYTOX Green (final concentration of 0.5 μM) for 15 min in the dark, followed by adding two-fold serial dilutions of peptides at concentrations of 1 to 64 µM. The fluorescence intensity was monitored for 30 min at 485 (Ex) and 520 (Em) nm using a microtiter SpectraMax M5 reader (Molecular Devices, San Jose, CA, USA).

[14] = tested on: HaCaT cells; test: Cytotoxicity, XTT cell viability assay; type: cell-based, human; settings: peptides 4-256 µM, 24 h incubation, triplicate
Experimental: Cell viability was assessed using sodium XTT assays. HaCaT (human immortalized keratinocytes) cells were cultured in Dulbecco’s modified Eagle medium (DMEM; ThermoFisher Scientific, Gibco, Waltman, MA, USA) supplemented with antibiotic-antimycotic (ThermoFisher Scientific, Gibco) and 10% fetal bovine serum (FBS; ThermoFisher Scientific, Gibco) at 37 °C in a humidified chamber containing 5% CO2. The cells were seeded at 5 × 10^4 cells/mL in flat-bottom 96-well microtiter plates in triplicate. Twenty-four hours later, cells were treated with two-fold serial dilutions of peptides (ranging from 256 to 4 µM) in medium, and the cells were further incubated for 24 h. Next, activated-XTT solution was added to each well and the plates were additionally incubated for 4 h. Absorbance in each well was measured at wavelengths of 480 and 650 nm using a microtiter SpectraMax M5 reader (Molecular Devices, Sunnyvale, CA, USA). Triton X-100 (0.1% v/v) and DMEM were used as controls for survival.

[15] = tested on: C. tropicalis cells; test: Mitochondrial superoxide, MitoSOX Red flow cytometry; type: cell-based; settings: peptide at MIC for 8 h
Experimental: Mitochondrial SOX was measured using MitoSOX Red probe. C. tropicalis cells (2 × 10^4 spores/mL) were treated with samples at the appropriate MIC for 8 h and then stained with MitoSOX Red according to the manufacturer’s instructions. The stained cells were acquired by flow cytometry (Attune NxT Acoustic Focusing Cytometer; ThermoFisher Scientific Co., Eugene, OR, USA) at 561 nm by 10,000 total events.

[16] = acidic: 10 mM MES buffer pH 5.5 with 20% culture medium (value in parentheses), 28 °C, triplicate
[17] = 10 mM sodium phosphate buffer pH 7.2 with 20% culture medium, 28 °C, triplicate

Compound | MIC ([1]; pH 5.5) [µM] | MIC ([1]; pH 7.2) [µM] | leakage of calcein [2] [%] | MIC ([3]; pH 5.5) [µM] | MIC ([3]; pH 7.2) [µM] | MIC ([4]; pH 5.5) | MIC ([4]; pH 7.2) | MIC ([5]; pH 5.5) | MIC ([5]; pH 7.2) | MIC ([6]; pH 5.5) | MIC ([6]; pH 7.2) | MIC ([7]; pH 5.5) [µM] | MIC ([7]; pH 7.2) [µM] | MIC ([8]; pH 5.5) | MIC ([8]; pH 7.2) | MIC ([9]; pH 5.5) [µM] | MIC ([9]; pH 7.2) [µM] | MIC ([10]; pH 5.5) | MIC ([10]; pH 7.2) | SYTOX Green fluorescence intensity [13] | also measured
GLNALKKVFQGAHEAIKLANNHVQ-NH2 [P2-LZ3] | 32 | 64 | 48.3 | 16 | 4 | 8 (8) µM | 8 (8) µM | >64 (>64) µM | >64 (>64) µM | 32 µM | 64 µM | 16 | 64 | 2 µM | 6 µM | 16 | 8 | 2 (2) µM | 2 (2) µM | – | –
CC[C@H](C)[C@H](NC(=O)CN)C(=O)NCC(=O)N[C@@H](C)C(=O)N[C@H](C(=O)N[C@@H](CC(C)C)C(=O)N[C@@H](CCCCN)C(=O)N[C@H](C(=O)N[C@@H](CC(C)C)C(=O)N[C@H](C(=O)N[C@H](C(=O)NCC(=O)N[C@@H](CC(C)C)C(=O)N1CCC[C@H]1C(=O)N[C@@H](C)C(=O)N[C@@H](CC(C)C)C(=O)N[C@H](C(=O)N[C@@H](CO)C(=O)N[C@@H](Cc1c[nH]c2ccccc12)C(=O)N[C@H](C(=O)N[C@@H](CCCCN)C(=O)N[C@@H](CCCNC(=N)N)C(=O)N[C@@H](CCCCN)C(=O)N[C@@H](CCCNC(=N)N)C(=O)N[C@@H](CCC(N)=O)C(=O)N[C@@H](CCC(N)=O)C(N)=O)[C@@H](C)CC)[C@@H](C)CC)[C@@H](C)O)[C@@H](C)O)C(C)C)C(C)C [Melittin, reference compound] | – | – | 84.1 | – | – | – | – | – | – | – | – | – | – | – | – | – | – | – | – | gradual, concentration-dependent increases in fluorescence intensity | MIC ([1]; 10 mM sodium phosphate buffer pH 7.2 with 20% culture medium, 28 °C, >90% reduction of germination, triplicate): 6 µM (≈ 17.1 µg/mL); MIC [1, 16]: 4 µM (≈ 11.4 µg/mL); MIC [3, 17]: 64 µM (≈ 182 µg/mL); MIC [3, 16]: 32 µM (≈ 91.1 µg/mL); MIC [4, 17]: 8 µM (≈ 22.8 µg/mL); MIC [4, 16]: 4 µM (≈ 11.4 µg/mL); MIC [5, 17]: 16 µM (≈ 45.5 µg/mL); MIC [5, 16]: 8 µM (≈ 22.8 µg/mL); calcein efflux [11]: significant dye leakage; hemolytic effects (hemoglobin release, by visualization) [12]: severe hemolysis; MIC [6, 17]: 32 (32) µM; MIC [6, 16]: 32 (32) µM; MIC [7, 17]: 6 µM (≈ 17.1 µg/mL); MIC [7, 16]: 4 µM (≈ 11.4 µg/mL); MIC [8, 17]: 2 (2) µM; MIC [8, 16]: 2 (2) µM; MIC ([9]; 10 mM sodium phosphate buffer pH 7.2 with 20% culture medium, 28 °C, >90% reduction of proliferation, triplicate): 32 µM (≈ 91.1 µg/mL); MIC [9, 16]: 8 µM (≈ 22.8 µg/mL); MIC [10, 17]: 16 µM (≈ 45.5 µg/mL); MIC [10, 16]: 8 µM (≈ 22.8 µg/mL)
GLNAAKKVFQGAHEAIKLINNHVQ-NH2 [P2-LZ1] | 12 | 64 | 81.8 | 12 | 4 | 8 (8) µM | 8 (8) µM | > 64 (>64) µM | > 64 (>64) µM | 48 (48) µM | 48 (48) µM | 16 | 64 | 2 (2) µM | 2 (2) µM | 32 | 8 | 2 µM | 4 µM | – | cytotoxic effects against HaCaT cells [14]: significant, concentration-dependent cytotoxic effects
GANALKKVAQGIHEAIKLINNHVQ-NH2 [P2-LZ2] | 12 | 32 | 77.0 | 16 | 2 | 4 µM | 6 µM | 64 µM | 48 µM | 16 µM | 24 µM | 16 | 24 | 2 (2) µM | 2 (2) µM | 32 | 4 | 1.5 µM | 2 µM | – | –
GLNALKKVKQGKHEAIKLINNHVQ-NH2 [P2-LZ5] | > 64 | 16 | 33.8 | 16 | 6 | 16 µM | 48 µM | >64 (>64) µM | >64 (>64) µM | 64 (>64) µM | 64 (>64) µM | > 64 | 16 | 32 µM | 8 µM | 64 | 32 | 16 µM | 8 µM | much lower than that in the presence of the other peptides | MitoSOX Red fluorescence (mitochondrial SOX) [15]: significantly increased
